Patent publication US10501499B2 (priority 2012, dated 2019)

Columns and labels:
human PBMCs [1] = type: cell-based
human PBMCs [2] = type: cell-based; remark: listed apart in the source

Row | Sequence | Intracellular Uptake (human PBMCs [1]) | Extracellular Uptake (human PBMCs [2])
1 | RRGTANWARVISRANWAKVILRNWAKVI [BI330-83] | 194.69 | 364.04
2 | RRGYLPAVGAPIRRRVIRVIAHGLRL [BI310-511c] | 31.83 | 203.62
3 | RRGYLPAVGAPIRRVIRVIAHGLRL [BI310-511d] | 70.64 | 267.15
4 | RGYLPAVGAPIRRVIRVIAHGLRLR [BI310-511e] | 44.59 | 473.80
5 | RGTANWARVISRANWAKVILRNWAKVI [BI330-83c] | 154.43 | 435.66
6 | RGYLPAVGAPIRRRVIRVIAHGLRLR [BI310-511] | 22.62 | 227.46
7 | RGYLPAVGAPIRVIRVIAHGLRLR [BI310-511f] | 26.85 | 178.61
8 | RGYLPAVGAPIRRVIRVIAHGLRL [BI310-511g] | 66.74 | 171.31
9 | RGTANWARVISRRANWAKVILRNWAKVI [BI330-83b] | 120.10 | 518.60
10 | RRGYLPAVGAPIRRVIRVIAHGLRLR [BI310-511b] | 67.29 | 466.71
11 | RGTANWARVISRGANWAKVILRNWAKVI [BI330-83d] | 52.14 | 267.38
